Data published in US9872875B2, “Component and method for treating viral disease” (Institut Pasteur of Shanghai, Chinese Academy of Sciences, priority 2012, dated 2018).
Counter-ions that a name gives are not always drawn. Like-named read-outs stand apart in the source and are kept apart here. Ends that are not written are not given here.

Tests used:
EV71 [1] = assay: Effects of other antagonists and agonists on EV71 (Table 9); assay type: cell-based, Enterovirus 71; set-up: key: “NO” indicates there is negative
P2X7 receptor = molecular target: T1, P2X7 receptor (Homo sapiens, UniProt Q99572); settings: cited from earlier work
T1 sequence (Q99572 1-595): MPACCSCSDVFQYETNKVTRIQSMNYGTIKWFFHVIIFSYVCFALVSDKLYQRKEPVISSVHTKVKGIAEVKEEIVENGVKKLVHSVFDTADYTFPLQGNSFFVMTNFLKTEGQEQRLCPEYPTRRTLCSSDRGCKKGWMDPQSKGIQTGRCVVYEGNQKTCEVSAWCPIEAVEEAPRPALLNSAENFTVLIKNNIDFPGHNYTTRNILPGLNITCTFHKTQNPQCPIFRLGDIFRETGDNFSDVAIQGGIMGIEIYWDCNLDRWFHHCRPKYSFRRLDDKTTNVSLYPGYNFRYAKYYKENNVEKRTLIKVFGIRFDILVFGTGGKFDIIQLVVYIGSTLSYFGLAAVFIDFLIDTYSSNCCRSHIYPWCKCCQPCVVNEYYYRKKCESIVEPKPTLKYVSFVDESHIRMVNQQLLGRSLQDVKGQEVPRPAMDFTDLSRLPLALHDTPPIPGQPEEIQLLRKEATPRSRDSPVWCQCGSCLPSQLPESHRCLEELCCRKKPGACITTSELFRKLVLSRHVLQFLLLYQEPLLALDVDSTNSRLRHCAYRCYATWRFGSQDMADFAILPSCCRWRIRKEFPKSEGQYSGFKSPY

P2X1 receptor = molecular target: T2, P2X1 receptor (Homo sapiens, UniProt P51575); settings: cited from earlier work
T2 sequence (P51575 1-399): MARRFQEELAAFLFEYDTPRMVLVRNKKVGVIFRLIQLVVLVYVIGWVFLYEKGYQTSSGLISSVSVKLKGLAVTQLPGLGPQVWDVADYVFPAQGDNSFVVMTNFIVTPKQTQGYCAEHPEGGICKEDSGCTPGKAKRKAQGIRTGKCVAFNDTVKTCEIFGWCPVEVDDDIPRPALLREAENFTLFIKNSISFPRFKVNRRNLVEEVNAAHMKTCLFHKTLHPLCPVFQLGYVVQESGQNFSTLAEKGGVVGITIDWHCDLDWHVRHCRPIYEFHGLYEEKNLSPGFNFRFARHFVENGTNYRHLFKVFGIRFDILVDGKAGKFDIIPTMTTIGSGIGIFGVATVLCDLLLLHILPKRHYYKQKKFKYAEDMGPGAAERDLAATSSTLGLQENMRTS

P2X2 receptor = molecular target: T3, P2X2 receptor (Homo sapiens, UniProt Q9UBL9); settings: cited from earlier work
T3 sequence (Q9UBL9 1-471): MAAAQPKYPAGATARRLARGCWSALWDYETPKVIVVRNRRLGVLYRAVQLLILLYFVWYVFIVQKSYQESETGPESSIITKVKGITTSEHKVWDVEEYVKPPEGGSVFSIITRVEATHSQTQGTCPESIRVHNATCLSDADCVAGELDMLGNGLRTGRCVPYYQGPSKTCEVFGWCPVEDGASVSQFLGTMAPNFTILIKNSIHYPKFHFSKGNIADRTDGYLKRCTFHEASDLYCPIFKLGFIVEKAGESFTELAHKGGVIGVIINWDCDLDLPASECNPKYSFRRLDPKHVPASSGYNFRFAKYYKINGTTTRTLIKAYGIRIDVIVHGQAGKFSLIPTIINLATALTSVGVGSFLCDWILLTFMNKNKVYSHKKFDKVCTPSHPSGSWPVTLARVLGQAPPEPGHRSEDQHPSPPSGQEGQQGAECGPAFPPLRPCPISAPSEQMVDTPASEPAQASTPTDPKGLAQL

EV71 [2] = assay: Inhibition of EV71 replication in RD cells at 0.1, 1, 10 and 100 μM (CPE, crystal violet); assay type: cell-based, Enterovirus 71; settings: for Inhibition of EV71 replication: Table 8, antagonists
Method: Inhibitory effect of each P2X receptor antagonists and agonists on EV71 replication was measured at 0.1, 1, 10, and 100 μM. Specific procedures refer to “1” of Example 1. after infection, however, cells need to be incubated for 3˜4 days, stained with crystal violet, and observed under optical microscope to determine whether or not CPE (cytopathic effect) was present. In addition, the effect of compounds at each concentration on cytotoxicity to RD cells was determined. After culturing RD cells in various concentrations of compounds for 3˜4 days, stained with crystal violet, and observed under optical microscope to observe whether or not cell layer was damaged. Compounds capable of protecting cells from infection without damage of healthy cell layer can inhibit EV71 replication in RD cells.

P2X3 receptor = molecular target: T4, P2X3 receptor (Homo sapiens, UniProt P56373); settings: cited from earlier work
T4 sequence (P56373 1-397): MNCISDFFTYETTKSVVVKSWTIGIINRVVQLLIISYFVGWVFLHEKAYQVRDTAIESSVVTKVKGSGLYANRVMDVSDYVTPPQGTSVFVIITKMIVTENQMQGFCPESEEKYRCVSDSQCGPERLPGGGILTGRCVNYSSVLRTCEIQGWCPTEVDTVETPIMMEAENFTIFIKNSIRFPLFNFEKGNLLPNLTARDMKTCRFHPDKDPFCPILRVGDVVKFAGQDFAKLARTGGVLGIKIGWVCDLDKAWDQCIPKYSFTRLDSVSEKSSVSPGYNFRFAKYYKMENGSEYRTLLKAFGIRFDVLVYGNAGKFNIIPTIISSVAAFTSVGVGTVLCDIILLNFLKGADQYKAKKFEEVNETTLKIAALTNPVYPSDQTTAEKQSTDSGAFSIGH

Nc1ncnc2c1ncn2[C@@H]1O[C@H](COP(=O)(O)O)C(O)C1OP(=O)(O)O (stereo partly drawn) [2′,5′-ADP]
EV71 Log10 reduction (EV71 [1]): NO

O=C1CN=C(c2cccc(Br)c2)c2oc3ccccc3c2N1 [5-BDBD]
EV71 Log10 reduction (EV71 [1]): NO

Clc1cccc(-c2nnnn2Cc2cccnc2)c1Cl [A 438079]
P2X receptors 7 (P2X7 receptor; Table 9, antagonists): ✓ ✓ (✓ ✓ activating concentration 10 nM-300 nM)
EV71 Log10 reduction (EV71 [1]): NO

COc1ccc(CC(=O)NC(N=C(NC#N)Nc2cccc3ncccc23)C(C)(C)C)cc1OC (stereo not drawn) [A 740003]
P2X receptors 7 (P2X7 receptor; Table 9, antagonists): ✓ ✓ (✓ ✓ activating concentration 10 nM-300 nM)
EV71 Log10 reduction (EV71 [1]): NO

Clc1cccc(-n2nnnc2NCc2ccccc2Oc2ccccn2)c1Cl [A 839977]
P2X receptors 7 (P2X7 receptor; Table 9, antagonists): ✓ ✓ (✓ ✓ activating concentration 10 nM-300 nM)
EV71 Log10 reduction (EV71 [1]): NO

O=C(O)c1cc(C(=O)O)c(C(=O)N(Cc2cccc(Oc3ccccc3)c2)[C@H]2CCCc3ccccc32)cc1C(=O)O [A-317491]
EV71 Log10 reduction (EV71 [1]): NO

COc1cc(C(C)C)c(Oc2cnc(N)nc2N)cc1I [AF353]
EV71 Log10 reduction (EV71 [1]): NO

O=C(CC12CC3CC(CC(C3)C1)C2)Nc1cccc2nc(NCCNCCO)ccc12 [AZ 10606120]
EV71 Log10 reduction (EV71 [1]): NO

O=C1CSC(=O)N1C(CCc1ccncc1)COc1ccc(-c2cccc([N+](=O)[O-])c2)cc1 (stereo not drawn) [AZ 11645373]
P2X receptors 7 (P2X7 receptor; Table 9, antagonists): ✓ ✓ (✓ ✓ activating concentration 10 nM-300 nM)
EV71 Log10 reduction (EV71 [1]): NO

CCOc1ccc(Nc2ccc(/C(=C3C=C/C(=[N+](/CC)Cc4cccc(S(=O)(=O)[O-])c4)C=C/3C)c3ccc(N(CC)Cc4cccc(S(=O)(=O)[O-])c4)cc3C)cc2)cc1.[Na+] [BBG]
P2X receptors 7 (P2X7 receptor; Table 9, antagonists): ✓ ✓ ✓ (✓ ✓ ✓ activating concentration <10 nM)
P2X receptors 1 (P2X1 receptor; Table 9, antagonists): ✓ (✓ activating concentration >300 nM)
EV71 Log10 reduction (EV71 [1]): NO
P2X receptors 2 (P2X2 receptor; Table 9, antagonists): ✓ (✓ activating concentration >300 nM)

Cc1cc(-c2ccc(N=Nc3ccc4c(S(=O)(=O)[O-])cc(S(=O)(=O)[O-])c(N)c4c3O)c(C)c2)ccc1N=Nc1ccc2c(S(=O)(=O)[O-])cc(S(=O)(=O)[O-])c(N)c2c1O.[Na+].[Na+].[Na+].[Na+] [Evans Blue]
inhibition of EV71 replication (statement in words) (EV71 [2]): can also inhibit EV71 replication

Cc1ccc(CN2CCNCC2)cc1NC(=O)CNc1ccc(F)c(F)c1 [GW 791343]
P2X receptors 7 (P2X7 receptor; Table 9, modulator, no key printed for this class): ✓ ✓
EV71 Log10 reduction (EV71 [1]): NO

CN([C@@H](Cc1ccc(OS(=O)(=O)c2cccc3cnccc23)cc1)C(=O)N1CCN(c2ccccc2)CC1)S(=O)(=O)c1cccc2cnccc12 [KN-62]
P2X receptors 7 (P2X7 receptor; Table 9, antagonists): ✓ ✓ (✓ ✓ activating concentration 10 nM-300 nM)
EV71 Log10 reduction (EV71 [1]): NO

Cc1nc(N=Nc2ccc(C(=O)O)cc2)c(COP(=O)(O)O)c(C=O)c1O [MRS 2159]
P2X receptors 1 (P2X1 receptor; Table 9, antagonists): ✓ ✓ (✓ ✓ activating concentration 10 nM-300 nM)
EV71 Log10 reduction (EV71 [1]): NO

O=C(Nc1cccc(C(=O)Nc2ccc(S(=O)(=O)O)c3cc(S(=O)(=O)O)cc(S(=O)(=O)O)c23)c1)Nc1cccc(C(=O)Nc2ccc(S(=O)(=O)O)c3cc(S(=O)(=O)O)cc(S(=O)(=O)O)c23)c1 [NF023, 8,8′-[carbonylbis(imino-3,1-phenylenecarbonylimino)]bis-1,3,5-naphthalene-trisulphonic acid, hexasodium salt]
P2X receptors 3 (P2X3 receptor; Table 8, antagonists): + (+: inhibitory concentration >300 nM)
inhibition of EV71 replication (statement in words) (EV71 [2]): can also inhibit EV71 replication
Inhibition of EV71 replication (EV71 [2]): + (+: inhibitory concentration >300 nM)
P2X receptors 1 (P2X1 receptor): ++ (key: −: no activity; +: inhibitory concentration >300 nM; ++: inhibitory concentration = 10~300 nM; +++: inhibitory concentration <10 nM)
P2X receptors 2 (P2X2 receptor; Table 8, antagonists): + (+: inhibitory concentration >300 nM)

O=C(Nc1cccc(C(=O)Nc2cc(C(=O)Nc3ccc(S(=O)(=O)O)c4cc(S(=O)(=O)O)cc(S(=O)(=O)O)c34)ccc2F)c1)Nc1cccc(C(=O)Nc2cc(C(=O)Nc3ccc(S(=O)(=O)O)c4cc(S(=O)(=O)O)cc(S(=O)(=O)O)c34)ccc2F)c1 [NF157, 8,8′-[Carbonylbis[imino-3,1-phenylenecarbonylimino(4-fluoro-3,1-phenylene)carbonylimino]]]
inhibition of EV71 replication (statement in words) (EV71 [2]): can also inhibit EV71 replication

O=C(Nc1cc(C(=O)Nc2ccc(S(=O)(=O)[O-])cc2)cc(C(=O)Nc2ccc(S(=O)(=O)[O-])cc2)c1)Nc1cc(C(=O)Nc2ccc(S(=O)(=O)[O-])cc2)cc(C(=O)Nc2ccc(S(=O)(=O)[O-])cc2)c1.[Na+].[Na+].[Na+].[Na+] [NF 110]
P2X receptors 3 (P2X3 receptor; Table 9, antagonists): ✓ ✓ (✓ ✓ activating concentration 10 nM-300 nM)
P2X receptors 1 (P2X1 receptor; Table 9, antagonists): ✓ ✓ (✓ ✓ activating concentration 10 nM-300 nM)
EV71 Log10 reduction (EV71 [1]): NO
P2X receptors 2 (P2X2 receptor; Table 9, antagonists): ✓ (✓ activating concentration >300 nM)

Cc1nc(N=Nc2cc(S(=O)(=O)[O-])c3cc([N+](=O)[O-])cc(S(=O)(=O)[O-])c3c2)c(COP(=O)([O-])[O-])c(C=O)c1O.[Na+].[Na+].[Na+].[Na+] [PPNDS, Pyridoxal-5′-phosphate-6-(2′-naphthylazo-6′-nitro-4′,8′-disulfonate) tetrasodium salt]
inhibition of EV71 replication (statement in words) (EV71 [2]): can also inhibit EV71 replication
Inhibition of EV71 replication (EV71 [2]): ++ (++: inhibitory concentration = 10~300 nM)
P2X receptors 1 (P2X1 receptor; Table 8, antagonists): ++ (++: inhibitory concentration = 10~300 nM)

O=C(N[C@H](Cc1cscn1)C(=O)N[C@@H](CC1CCCCC1)[C@@H](O)[C@@H](O)C1CC1)c1nc2ccccc2[nH]1 [Ro 0437626]
P2X receptors 1 (P2X1 receptor; Table 9, antagonists): ✓ (✓ activating concentration >300 nM)
EV71 Log10 reduction (EV71 [1]): NO

Cc1nc(N=Nc2cc(S(=O)(=O)O)ccc2S(=O)(=O)O)c(COP(=O)(O)O)c(C=O)c1O [iso-PPADS, pyridoxal-phosphate-6-azophenyl-2′,5′-disulphonic acid]
P2X receptors 3 (P2X3 receptor; Table 8, antagonists): ++ (++: inhibitory concentration = 10~300 nM)
inhibition of EV71 replication (statement in words) (EV71 [2]): can also inhibit EV71 replication
Inhibition of EV71 replication (EV71 [2]): + (+: inhibitory concentration >300 nM)
P2X receptors 1 (P2X1 receptor; Table 8, antagonists): ++ (++: inhibitory concentration = 10~300 nM)
P2X receptors 2 (P2X2 receptor; Table 8, antagonists): ++ (++: inhibitory concentration = 10~300 nM)

Nc1ncnc2c1ncn2[C@@H](C=O)O[C@@H](C=O)COP(=O)(O)OP(=O)(O)OP(=O)(O)O [oATP]
P2X receptors 7 (P2X7 receptor; Table 9, antagonists): ✓ ✓ (✓ ✓ activating concentration 10 nM-300 nM)
EV71 Log10 reduction (EV71 [1]): NO

LVVYPWT [Spinorphin]
P2X receptors 3 (P2X3 receptor; Table 9, antagonists): ✓ ✓ ✓ (✓ ✓ ✓ activating concentration <10 nM)
EV71 Log10 reduction (EV71 [1]): NO
